≈ marks a conversion by molar mass, not a printed value.
How the values were obtained:
[1] = biological target: Human plasma kallikrein (Homo sapiens (Human), UniProt P03952); assay: Determination of the IC50 for plasma kallikrein (fluorogenic substrate H-DPro-Phe-Arg-AFC); format: biochemical; conditions: class symbols A-D, read-out: IC50 (human PKal)
Outline: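 IC50 values come from initial rates, monitored as the change in absorbance at 410 nm, of residual enzyme activity. Test compound was present at various concentrations with the fluorogenic substrate H-DPro-Phe-Arg-AFC, and the reaction was run at 25° C.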

[2] = biological target: Human KLK1 (Homo sapiens (Human), UniProt P06870); assay: Determination of the IC50 for KLK1 (fluorogenic substrate H-DVal-Leu-Arg-AFC); format: biochemical
Human KLK1, sequence (P06870 25-262): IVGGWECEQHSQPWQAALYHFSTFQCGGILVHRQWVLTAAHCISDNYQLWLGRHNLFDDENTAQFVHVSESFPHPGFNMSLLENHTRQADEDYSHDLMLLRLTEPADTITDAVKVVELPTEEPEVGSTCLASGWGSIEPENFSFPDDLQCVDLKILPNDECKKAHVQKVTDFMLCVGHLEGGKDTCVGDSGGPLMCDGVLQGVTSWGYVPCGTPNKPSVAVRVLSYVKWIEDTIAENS
Outline: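 Inhibition read as initial rate via optical absorbance change at 410 nm, giving IC50. Reactions combined human KLK1, the substrate H-DVal-Leu-Arg-AFC and varied compound concentrations at 25° C.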

[3] = biological target: Human FXIa (Homo sapiens (Human), UniProt P03951); assay: Determination of the % inhibition for FXIa (fluorogenic substrate Z-Gly-Pro-Arg-AFC; 40 μM or IC50); format: biochemical
Human FXIa, sequence (P03951 388-625): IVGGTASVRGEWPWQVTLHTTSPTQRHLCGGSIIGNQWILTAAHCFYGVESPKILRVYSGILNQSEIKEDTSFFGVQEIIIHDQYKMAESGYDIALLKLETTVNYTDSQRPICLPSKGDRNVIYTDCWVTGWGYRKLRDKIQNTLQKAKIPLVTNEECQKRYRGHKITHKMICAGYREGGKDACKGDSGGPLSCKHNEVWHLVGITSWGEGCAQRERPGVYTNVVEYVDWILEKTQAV
Human FXIa, sequence (P03951 19-387 partner): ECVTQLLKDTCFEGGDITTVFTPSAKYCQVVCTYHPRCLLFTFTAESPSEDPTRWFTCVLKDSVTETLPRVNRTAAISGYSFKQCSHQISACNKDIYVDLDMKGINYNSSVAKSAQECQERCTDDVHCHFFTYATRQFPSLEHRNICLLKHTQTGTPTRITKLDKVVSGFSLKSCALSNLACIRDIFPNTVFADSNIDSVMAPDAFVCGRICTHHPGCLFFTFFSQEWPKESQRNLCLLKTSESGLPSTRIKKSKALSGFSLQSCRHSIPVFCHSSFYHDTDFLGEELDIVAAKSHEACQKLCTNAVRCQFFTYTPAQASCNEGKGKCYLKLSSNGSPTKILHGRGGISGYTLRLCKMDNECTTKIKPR
Outline: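 Inhibition measured from initial reaction rate, followed as absorbance change at 410 nm, with substrate Z-Gly-Pro-Arg-AFC at 25 °C. Compound tested at a single 40 μM dose for percent inhibition, or across several concentrations to derive IC50 against human FXIa.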

[4] = Solubility after 24 hrs in Fasted State Simulated Intestinal Fluid (FaSSIF); format: physicochemical; conditions: Fasted State Simulated Intestinal Fluid (FaSSIF), thermodynamic from solid, 24 hrs at 37° C., nominal concentration 1 mg/mL (as free base)
Description: Selected compounds were further screened for solubility in Fasted State Simulated Intestinal Fluid (FaSSIF).
Approximately 1 mg of test compound is accurately weighed into a 2 mL vial. Volumes of the FaSSIF solution (pre-heated to 37° C.) were added to a vial to give a nominal concentration of 1 mg/mL (as free base). The FaSSIF solution was prepared on the day of use. The samples were vortexed before being placed in a Titramax 1000 shaker for 24 hrs at 37° C. and approximately 500 rpm. The samples were transferred to eppendorf tubes and centrifuged at 15,000 g (r.c.f.) for 10 min at 37° C. and analysed for concentration of test compound by LCMS.

Human plasma kallikrein, sequence (P03952 391-638): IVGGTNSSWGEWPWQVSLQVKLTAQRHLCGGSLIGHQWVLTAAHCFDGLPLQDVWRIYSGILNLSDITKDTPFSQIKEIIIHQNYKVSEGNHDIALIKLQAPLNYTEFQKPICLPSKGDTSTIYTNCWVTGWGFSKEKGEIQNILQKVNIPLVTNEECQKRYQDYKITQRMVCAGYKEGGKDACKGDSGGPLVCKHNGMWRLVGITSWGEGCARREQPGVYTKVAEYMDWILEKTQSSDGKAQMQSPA
Human plasma kallikrein, sequence (P03952 20-390 partner): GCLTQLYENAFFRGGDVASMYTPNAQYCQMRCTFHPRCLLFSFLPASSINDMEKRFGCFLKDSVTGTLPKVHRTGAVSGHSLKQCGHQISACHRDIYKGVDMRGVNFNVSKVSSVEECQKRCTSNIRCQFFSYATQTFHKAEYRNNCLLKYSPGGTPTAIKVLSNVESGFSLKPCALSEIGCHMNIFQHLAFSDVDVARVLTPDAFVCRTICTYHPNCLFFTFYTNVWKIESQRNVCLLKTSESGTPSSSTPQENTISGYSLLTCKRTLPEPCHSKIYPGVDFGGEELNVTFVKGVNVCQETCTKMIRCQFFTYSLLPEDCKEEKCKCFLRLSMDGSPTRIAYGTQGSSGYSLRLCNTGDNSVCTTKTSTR

In the case of `COCc1nn(Cc2cnc(N3CCCC3)nc2)cc1C(=O)NCc1c(-n2cc(C(F)F)nn2)ccc(OC)c1F` [RC7, N-({6-[4-(difluoromethyl)-1,2,3-triazol-1-yl]-2-fluoro-3-methoxyphenyl}methyl)-3-(methoxymethyl)-1-{[2-(pyrrolidin-1-yl)pyrimidin-5-yl]methyl}pyrazole-4-carboxamide, reference compound], the IC50 [1] is reported as < 0.01 µM, the IC50 [2] is reported as > 40 µM and the IC50 [3] is reported as 0.559 µM. For the same compound, the solubility at 24 h [4] was 10 µg/mL (≈ 17.5 µM).
In the case of `COCc1nn(Cc2ccc3c(c2)CCN(C(C)C)C3)cc1C(=O)NCc1c(-n2cnc(C(F)(F)F)n2)ccc(OC)c1F` [Example 45, N-({2-fluoro-3-methoxy-6-[3-(trifluoromethyl)-1,2,4-triazol-1-yl]phenyl}methyl)-1-[(2-isopropyl-3,4-dihydro-1H-isoquinolin-6-yl)methyl]-3-(methoxymethyl)pyrazole-4-carboxamide], the IC50 [1] is reported as < 0.01 µM, the IC50 [2] is reported as > 40 µM and the IC50 [3] is reported as > 40 µM. For the same compound, the solubility at 24 h [4] was 840 µg/mL (≈ 1360 µM).
In the case of `COc1ccc(-n2cc(C)nn2)c(CNC(=O)c2cn(Cc3ccc4c(c3)CN(C(C)C)C4)nn2)c1F` [Example 153, N-{[2-fluoro-3-methoxy-6-(4-methyl-1,2,3-triazol-1-yl)phenyl]methyl}-1-[(2-isopropyl-1,3-dihydroisoindol-5-yl)methyl]-1,2,3-triazole-4-carboxamide], the IC50 [1] is reported as < 0.01 µM, the IC50 [2] is reported as > 40 µM and the IC50 [3] is reported as > 40 µM. It also gave a solubility at 24 h [4] of 950 µg/mL (≈ 1880 µM).
In the case of `COCc1nn(Cc2ccc3c(c2)CCN(C)C3)cc1C(=O)NCc1c(-n2cc(C(F)F)nn2)ccc(OC)c1F` [Example 34, N-({6-[4-(difluoromethyl)-1,2,3-triazol-1-yl]-2-fluoro-3-methoxyphenyl}methyl)-3-(methoxymethyl)-1-[(2-methyl-3,4-dihydro-1H-isoquinolin-6-yl)methyl]pyrazole-4-carboxamide], the IC50 [1] is reported as < 0.01 µM, the IC50 [2] is reported as > 40 µM and the IC50 [3] is reported as > 40 µM. For the same compound, the solubility at 24 h [4] was > 1000 µg/mL.
In the case of `COc1ccc(-n2cc(C)nn2)c(CNC(=O)c2cn(Cc3cc4n(n3)CCN(C)C4)nc2C(F)F)c1F` [Example 136, 3-(difluoromethyl)-N-{[2-fluoro-3-methoxy-6-(4-methyl-1,2,3-triazol-1-yl)phenyl]methyl}-1-({5-methyl-4H,6H,7H-pyrazolo[1,5-a]pyrazin-2-yl}methyl)pyrazole-4-carboxamide], the IC50 [1] is reported as < 0.01 µM, the IC50 [2] is reported as > 40 µM and the IC50 [3] is reported as > 40 µM. For the same compound, the solubility at 24 h [4] was 730 µg/mL (≈ 1380 µM).
For `COCc1nn(Cc2ccc3c(c2)CN(C)CC3)cc1C(=O)NCc1c(-n2cnc(C)n2)ccc(OC)c1F` [Example 4, N-{[2-fluoro-3-methoxy-6-(3-methyl-1,2,4-triazol-1-yl)phenyl]methyl}-3-(methoxymethyl)-1-[(2-methyl-3,4-dihydro-1H-isoquinolin-7-yl)methyl]pyrazole-4-carboxamide], the IC50 [1] was < 0.01 µM, the IC50 [2] was > 40 µM and the IC50 [3] was 1.03 µM. For the same compound, the solubility at 24 h [4] was > 1000 µg/mL.
With `CCN1CCc2ccc(Cn3cc(C(=O)NCc4c(-n5ccc(C#N)n5)ccc(OC)c4F)c(COC)n3)cc2C1` [Example 27, N-{[6-(3-cyanopyrazol-1-yl)-2-fluoro-3-methoxyphenyl]methyl}-1-[(2-ethyl-3,4-dihydro-1H-isoquinolin-7-yl)methyl]-3-(methoxymethyl)pyrazole-4-carboxamide] the IC50 [1] was < 0.01 µM, the IC50 [2] was > 40 µM and the IC50 [3] was 33.9 µM. It also gave a solubility at 24 h [4] of 960 µg/mL (≈ 1720 µM).
With `COCc1nn(Cc2ccc3c(c2)CN(C(C)C)CC3)cc1C(=O)NCc1c(-n2cc(C#N)cn2)ccc(OC)c1F` [Example 30, N-{[6-(4-cyanopyrazol-1-yl)-2-fluoro-3-methoxyphenyl]methyl}-1-[(2-isopropyl-3,4-dihydro-1H-isoquinolin-7-yl)methyl]-3-(methoxymethyl)pyrazole-4-carboxamide] the IC50 [1] was < 0.01 µM, the IC50 [2] was > 40 µM and the IC50 [3] was 39.6 µM. It also gave a solubility at 24 h [4] of 920 µg/mL (≈ 1610 µM).
In the case of `CCN1CCc2ccc(Cn3cc(C(=O)NCc4c(-n5cnc(C(F)(F)F)n5)ccc(OC)c4F)c(COC)n3)cc2C1` [Example 25, 1-[(2-ethyl-3,4-dihydro-1H-isoquinolin-7-yl)methyl]-N-({2-fluoro-3-methoxy-6-[3-(trifluoromethyl)-1,2,4-triazol-1-yl]phenyl}methyl)-3-(methoxymethyl)pyrazole-4-carboxamide], the IC50 [1] is reported as < 0.01 µM, the IC50 [2] is reported as > 40 µM and the IC50 [3] is reported as > 40 µM. The solubility at 24 h [4] was 1000 µg/mL (≈ 1660 µM).
For `COc1ccc(-n2cc(C)nn2)c(CNC(=O)c2cn(Cc3cnc4c(c3)CCN(C)C4)nc2C(F)F)c1F` [Example 137, 3-(difluoromethyl)-N-{[2-fluoro-3-methoxy-6-(4-methyl-1,2,3-triazol-1-yl)phenyl]methyl}-1-[(7-methyl-6,8-dihydro-5H-1,7-naphthyridin-3-yl)methyl]pyrazole-4-carboxamide], the IC50 [1] was < 0.01 µM, the IC50 [2] was > 40 µM and the IC50 [3] was 21.9 µM. It also gave a solubility at 24 h [4] of 810 µg/mL (≈ 1500 µM).
In the case of `COCc1nn(Cc2ccc3c(c2)CCN(C)C3)cc1C(=O)NCc1c(-n2cnc(C(F)(F)F)n2)ccc(OC)c1F` [Example 42, N-({2-fluoro-3-methoxy-6-[3-(trifluoromethyl)-1,2,4-triazol-1-yl]phenyl}methyl)-3-(methoxymethyl)-1-[(2-methyl-3,4-dihydro-1H-isoquinolin-6-yl)methyl]pyrazole-4-carboxamide], the IC50 [1] is reported as < 0.01 µM, the IC50 [2] is reported as > 40 µM and the IC50 [3] is reported as > 40 µM. It also gave a solubility at 24 h [4] of 870 µg/mL (≈ 1480 µM).
In the case of `COCc1nn(Cc2ccc3nc(C)ccc3c2)cc1C(=O)NCc1c(-n2cnnn2)ccc(OC)c1F` [RC2, N-{[2-fluoro-3-methoxy-6-(1,2,3,4-tetrazol-1-yl)phenyl]methyl}-3-(methoxymethyl)-1-[(2-methylquinolin-6-yl)methyl]pyrazole-4-carboxamide, reference compound], the IC50 [1] is reported as < 0.01 µM, the IC50 [2] is reported as > 40 µM and the IC50 [3] is reported as 0.218 µM. It also gave a solubility at 24 h [4] of 20 µg/mL (≈ 38.7 µM).
With `COc1ccc(-n2cc(C)nn2)c(CNC(=O)c2cncc(Cc3ccc4c(c3)CN(C)CC4)c2)c1F` [Example 161, N-{[2-fluoro-3-methoxy-6-(4-methyl-1,2,3-triazol-1-yl)phenyl]methyl}-5-[(2-methyl-3,4-dihydro-1H-isoquinolin-7-yl)methyl]pyridine-3-carboxamide] the IC50 [1] was < 0.01 µM, the IC50 [2] was > 40 µM and the IC50 [3] was > 40 µM. For the same compound, the solubility at 24 h [4] was > 1000 µg/mL.
For `COc1ccc(-n2cc(C)nn2)c(CNC(=O)c2ccc(=O)n(Cc3ccc4c(c3)CN(C)CC4)c2)c1F` [Example 160, N-{[2-fluoro-3-methoxy-6-(4-methyl-1,2,3-triazol-1-yl)phenyl]methyl}-1-[(2-methyl-3,4-dihydro-1H-isoquinolin-7-yl)methyl]-6-oxopyridine-3-carboxamide], the IC50 [1] was < 0.01 µM, the IC50 [2] was > 40 µM and the IC50 [3] was > 40 µM. It also gave a solubility at 24 h [4] of 820 µg/mL (≈ 1590 µM).
In the case of `COCc1nn(Cc2ccc3c(c2)CCN(C)C3)cc1C(=O)NCc1c(-n2ccc(C#N)n2)ccc(OC)c1F` [Example 43, N-{[6-(3-cyanopyrazol-1-yl)-2-fluoro-3-methoxyphenyl]methyl}-3-(methoxymethyl)-1-[(2-methyl-3,4-dihydro-1H-isoquinolin-6-yl)methyl]pyrazole-4-carboxamide], the IC50 [1] is reported as < 0.01 µM, the IC50 [2] is reported as > 40 µM and the IC50 [3] is reported as 31.8 µM. The solubility at 24 h [4] was 800 µg/mL (≈ 1470 µM).
With `COc1ccc(-n2cc(C)nn2)c(CNC(=O)c2cn(Cc3ccc4c(c3)CN(C)CC4)c(C3CC3)n2)c1F` [Example 149, 2-cyclopropyl-N-{[2-fluoro-3-methoxy-6-(4-methyl-1,2,3-triazol-1-yl)phenyl]methyl}-1-[(2-methyl-3,4-dihydro-1H-isoquinolin-7-yl)methyl]imidazole-4-carboxamide] the IC50 [1] was 0.01 to 0.03 µM, the IC50 [2] was > 40 µM and the IC50 [3] was > 40 µM. For the same compound, the solubility at 24 h [4] was 910 µg/mL (≈ 1720 µM).
For `COCc1nc(C(=O)NCc2c(-n3cc(C)nn3)ccc(OC)c2F)cn1Cc1ccc2c(c1)CN(C)CC2` [Example 148, N-{[2-fluoro-3-methoxy-6-(4-methyl-1,2,3-triazol-1-yl)phenyl]methyl}-2-(methoxymethyl)-1-[(2-methyl-3,4-dihydro-1H-isoquinolin-7-yl)methyl]imidazole-4-carboxamide], the IC50 [1] was 0.01 to 0.03 µM, the IC50 [2] was > 40 µM and the IC50 [3] was > 40 µM. For the same compound, the solubility at 24 h [4] was > 1000 µg/mL.
For `CCN1CCc2ccc(Cn3cc(C(=O)NCc4c(-n5cnc(C(F)F)n5)ccc(OC)c4F)c(COC)n3)cc2C1` [Example 26, N-({6-[3-(difluoromethyl)-1,2,4-triazol-1-yl]-2-fluoro-3-methoxyphenyl}methyl)-1-[(2-ethyl-3,4-dihydro-1H-isoquinolin-7-yl)methyl]-3-(methoxymethyl)pyrazole-4-carboxamide], the IC50 [1] was < 0.01 µM, the IC50 [2] was > 40 µM and the IC50 [3] was > 40 µM. The solubility at 24 h [4] was > 1000 µg/mL.
In the case of `COCc1nc(C(=O)NCc2c(-n3cc(C)nn3)ccc(OC)c2F)cn1Cc1ccc2c(c1)CN(C(C)C)C2` [Example 147, N-{[2-fluoro-3-methoxy-6-(4-methyl-1,2,3-triazol-1-yl)phenyl]methyl}-1-[(2-isopropyl-1,3-dihydroisoindol-5-yl)methyl]-2-(methoxymethyl)imidazole-4-carboxamide], the IC50 [1] is reported as 0.01 to 0.03 µM, the IC50 [2] is reported as > 40 µM and the IC50 [3] is reported as > 40 µM. For the same compound, the solubility at 24 h [4] was > 1000 µg/mL.
